Experimental data taken from ChEMBL document CHEMBL1128914, “Suppression of morphine and cocaine self-administration in rats by a mixed mu antagonist-kappa agonist (N-CBM-TAMO) and a long-acting selective D1 antagonist (AS-300)” (Bioorg Med Chem Lett, 1996).

Assays:
Mu-type opioid receptor = Mu-type opioid receptor (Bos taurus, UniProt P79350); assay: Compound was tested for binding activity against mu opioid receptor in bovine striatal membranes using 0.25 nM [3H]DAMGO as the radioligand.; type: cell membranes, Striatum, Membrane
Chain of Mu-type opioid receptor (P79350 whole entry): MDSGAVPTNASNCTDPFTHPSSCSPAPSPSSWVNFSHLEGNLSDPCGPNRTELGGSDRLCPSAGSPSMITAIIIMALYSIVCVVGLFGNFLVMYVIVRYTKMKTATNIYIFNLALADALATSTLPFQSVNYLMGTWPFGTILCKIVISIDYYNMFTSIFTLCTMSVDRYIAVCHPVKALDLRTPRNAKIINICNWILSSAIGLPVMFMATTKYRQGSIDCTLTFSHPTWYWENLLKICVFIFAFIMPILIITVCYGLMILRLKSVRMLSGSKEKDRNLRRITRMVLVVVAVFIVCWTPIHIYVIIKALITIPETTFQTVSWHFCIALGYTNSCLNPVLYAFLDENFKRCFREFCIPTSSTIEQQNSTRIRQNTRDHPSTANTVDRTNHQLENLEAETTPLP

Mus musculus = assay: Compound was tested for its activity using mouse writhing assay after icv administration.; type: functional
D(1A) dopamine receptor = D(1A) dopamine receptor (Rattus norvegicus, UniProt P18901); assay: Compound was tested for binding affinity against Dopamine receptor D1 using 1 nM [3H]SCH-23390 as the radioligand.
Chain of D(1A) dopamine receptor (P18901 whole entry): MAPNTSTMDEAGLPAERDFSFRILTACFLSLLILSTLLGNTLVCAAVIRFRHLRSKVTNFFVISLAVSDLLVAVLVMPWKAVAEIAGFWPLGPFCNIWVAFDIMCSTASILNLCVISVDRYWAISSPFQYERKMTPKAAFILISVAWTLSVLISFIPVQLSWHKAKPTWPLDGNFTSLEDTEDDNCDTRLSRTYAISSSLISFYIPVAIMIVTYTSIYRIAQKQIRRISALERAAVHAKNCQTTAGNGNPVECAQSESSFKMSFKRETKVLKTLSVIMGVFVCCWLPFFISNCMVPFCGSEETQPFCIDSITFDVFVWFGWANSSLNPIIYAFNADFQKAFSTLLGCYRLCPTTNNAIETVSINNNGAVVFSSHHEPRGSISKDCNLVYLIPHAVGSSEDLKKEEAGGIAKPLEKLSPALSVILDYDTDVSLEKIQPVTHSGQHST

D(2) dopamine receptor = D(2) dopamine receptor (Rattus norvegicus, UniProt P61169); assay: Compound was tested for binding affinity against Dopamine receptor D2 using 10 nM [3H]N-methyl-spiperone as the radioligand.
Chain of D(2) dopamine receptor (P61169 whole entry): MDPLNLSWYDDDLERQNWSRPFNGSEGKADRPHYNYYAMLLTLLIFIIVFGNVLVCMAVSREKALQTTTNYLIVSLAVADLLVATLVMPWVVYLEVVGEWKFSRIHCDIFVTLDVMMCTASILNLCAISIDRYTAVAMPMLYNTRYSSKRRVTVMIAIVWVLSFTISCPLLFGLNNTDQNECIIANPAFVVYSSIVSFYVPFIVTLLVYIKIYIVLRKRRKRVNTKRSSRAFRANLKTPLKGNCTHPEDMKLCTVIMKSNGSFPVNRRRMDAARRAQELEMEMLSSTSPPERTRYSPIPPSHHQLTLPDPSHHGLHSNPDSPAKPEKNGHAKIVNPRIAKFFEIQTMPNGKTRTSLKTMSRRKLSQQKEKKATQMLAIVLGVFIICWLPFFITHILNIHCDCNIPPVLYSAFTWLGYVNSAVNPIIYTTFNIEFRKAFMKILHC

IC50 (D(1A) dopamine receptor) [nM] | IC50 (D(2) dopamine receptor) [nM] | SMILES | IC50 (Mu-type opioid receptor) [nM] | D50 (Mus musculus) [nM]
– | – | O=C(CSSCC(=O)N[C@@]12CCC(=O)[C@@H]3Oc4c(O)ccc5c4[C@@]31CCN(CC1CCC1)[C@@H]2C5)N[C@@]12CCC(=O)[C@@H]3Oc4c(O)ccc5c4[C@@]31CCN(CC1CCC1)[C@@H]2C5 | 1.95 | 0.08
2.13 | 978 | CN1CCc2cc(Cl)c(O)cc2C(c2cccc(N=C=S)c2)C1 (centres undefined) | – | –
